Data from paper PMC12216609, “Inhibitors of eIF1A-ribosome interaction unveil uORF-dependent regulation of translation initiation and antitumor and antiviral effects” (The EMBO Journal, 2025).
“And” between values parts separate entries of the source, which are not always exact repeats. Equal values may be shown once. Read-outs that look alike come from different tables or passages of the source.

Tests used:
[1] = system: OVCAR8 cell-derived xenograft; assay: Xenografts growth after 1Ais treatment in mice; type: in vivo
[2] = system: cap-proximal AUG GFP reporter in HEK293T cells; type: cell-based; settings: GFP WB densitometry; 20 µM overnight; dmso 0.965946
Source text: Translation from an AUG preceded by a very short 5'UTR (less than 30 nt) is usually inefficient and frequently bypassed, resulting in initiation from a downstream AUG, a phenomenon known as leaky scanning. […] To examine the impact of 1Ais on short 5'UTR initiation, we used a GFP reporter gene containing an AUG located 16 nt downstream from the 5' end followed by a second in-frame downstream AUG (Fig. 1F; Appendix Fig. S1B). Cells were transfected with this GFP reporter gene followed by exposure to DMSO (vehicle) and 1Ais. Initiations from upstream (US) or downstream (DS) AUGs were determined by western blot (WB) with anti-GFP antibodies and the ratio between the US and DS AUG was determined.
For the analysis of translation from very short 5'UTR and Leaky scanning, HEK293T cells were transfected with a GFP (20 ng/well) reporter gene driven by a cap-proximal and downstream AUGs (Elfakess et al, [2011]) together with a luciferase reporter gene (100 ng/well) as normalizing control and treated with 20 µM of 1Ais as described above. GFP levels were determined by Western blot (WB) (GFP antibody, Abcam #ab290) and quantified by densitometry (ImageJ) and normalized to the measured luciferase activity.
HEK293T cells were transfected with the GFP reporter gene schematically shown on the top. The first
AUG is […] from the 5’ end and the downstream AUG is in the same frame. Six hours after transfection, cells were treated with 1Ais. After overnight exposure to 1Ais, GFP expression was analyzed by WB using anti -GFP antibodies.
US/DS ratio was determined by densitometry and represents the long protein expression (upstream AUG, US) vs the […]
biological replicates. (C-D) Analysis of reporter genes mRNA levels after 1Ais treatment.

[3] = system: IRF7 5'UTR firefly luciferase reporter in HEK293T cells; settings: for LONG (summary - All), normalized to DMSO / SHORT (summary - All), normalized to DMSO: individual replicates, outliers excluded, DMSO = 1; for average ( long vs short ratio): summary - All; for Long 5'UTR reporter luciferase activity, normalized to DMSO (=1), single replicates: compound at 20 µM, left data block (Long), source data of Fig 1C;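 for all read-outs here: luciferase signal corrected by a co-transfected GFP reporter for transfection efficiency, read after overnight compound exposure, with Long and Short reporters differing in 5'UTR length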
Description: For the effect on ribosomal scanning, we used two firefly luciferase reporter genes that differ in their 5'UTR length (Fig. 1C). […] Cells were transfected with these reporters along with a GFP reporter gene used to normalize transfection efficiency. After an overnight 1Ai or DMSO (vehicle control) exposure, luciferase and GFP expression were measured, and normalized activity was determined.
For the reference vs IRF7 5'UTR luciferase reporter assay, HEK239T cells in a 12-well plate were transfected with the previously described IRF7 5'UTR or reference firefly luciferase reported genes (Sehrawat et al, [2019]) (100 ng/well) together with GFP (20 ng/well) that served as an internal control by CaCl2 transfection. After 6 h, half of the growth medium was replaced with a medium containing the different compounds, reaching a final concentration of 20 µM. Twenty-four hours after transfection, transfection efficiency was evaluated using GFP fluorescence intensity (Cytation 5, ex/em: 470/525). Cells were harvested in 50 µL Reported lysis buffer (RLB) and put on a shaker for 10 min. From each well 5 µL were taken in duplicates and tested by luminometer.

eIF1A-RPS10 interaction = molecular target: T1, eIF1A-RPS10 interaction (Homo sapiens, UniProt P46783+P47813); assay: Split-Renilla luciferase eIF1A-RPS10 interaction screen, dose-response; type: biochemical; settings: Appendix Table S1; read-out: IC50 from the split RL screen
T1 construct: made in house; host or cells: E. coli BL21 (PRSFduet); unpurified lysate supernatant
T1 sequence (P47813 whole entry, one chain of several): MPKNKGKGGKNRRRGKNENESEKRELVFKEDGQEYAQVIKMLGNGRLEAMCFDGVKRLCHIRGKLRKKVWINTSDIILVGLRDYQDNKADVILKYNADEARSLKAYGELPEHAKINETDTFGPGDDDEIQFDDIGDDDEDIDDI
Description: While knockdown (KD) studies of eIF1A provided valuable insights into its role in mammalian cell translation (Sehrawat et al, [2019]), this approach presents several limitations. First, it fails to elucidate the functional significance of the opposing functions of eIF1A N- and C-terminal tails with respect to scanning and start codon fidelity. Second, the extended duration required for achieving efficient knockdown, 48–72 h, impairs our ability to differentiate between direct and indirect effects. To overcome these constraints, we set out to develop small-molecule inhibitors targeting eIF1A. Guided by structural and biochemical studies showing eIF1A binding to the small ribosomal subunit at the A-site and interacting directly with RPS10 through its N-terminal tail (Haimov et al, [2017]; Passmore et al, [2007]; Sehrawat et al, [2019]), our approach focused on disrupting the interaction between eIF1A and RPS10. […] The interaction between eIF1A and RPS10 brings the two parts together, leading to the reconstitution of the enzymatic activity (Haimov et al, [2017]). In this system, the spatial arrangement of the two RL parts is critical for the enzymatic activity, making it sensitive not only to direct interference with the interacting proteins but also to changes in the conformation of the fused proteins. In the eIF1A-RPS10 split-RL pair, the C-terminus of eIF1A is fused to N-RL (Fig. 1A), in order to maintain the NTT accessible to RPS10 binding. This pair was cloned and expressed in bacteria as recombinant proteins and used to screen a library of ~50,000 small molecules from diverse sources (Ashkenazi et al, [2017]).
eIF1A-ΔC-Renilla and RPS10-ΔN-Renilla were transformed into BL21 E. coli by heat shock transformation. A bacterial starter of 5 ml LB was incubated overnight at 37 °C and transferred into 1 L LB for incubation at 37 °C until OD ~ 0.5–0.7. Next, protein expression was induced with 0.5 mM IPTG, and bacterial cells were incubated overnight at 16 °C. Bacterial cell pellet was collected after centrifugation (3000 RPM, 15 min), resuspended in 20 ml TKE buffer (Tris 10 mM, KCl 100 mM, EDTA 0.1 mM), sonicated (bath sonicator, 24 cycles of 30 s) and centrifuged again (15000 RPM, 30 min). Supernatants were collected, analyzed for RL activity, and then used for high throughput drug screen (HTS) at the Weizmann G-INCPM HTS unit as described (Ashkenazi et al, [2017]). In addition to the standard controls of this protocol, the two parts of the split RL, without eIF1A or RPS10, were tested as controls. Selected compounds were purchased from Sigma-Aldrich and Enamine. Compound powders were resuspended in DMSO for a final concentration of 10 mM and stored at −20 °C.

[4] = system: CUG/GUG vs AUG start codon luciferase reporters in HEK293T cells; assay: Near-cognate AUG starting codon fidelity reporter assay (GUG, CUG vs AUG); type: cell-based; settings: for GUG vs AUG data (%): individual repeat; for GUG vs AUG (%) Average: summary average of repeats, DMSO control average […]; for CUG vs AUG (%): CUG start codon reporter relative to AUG reporter (AUG = 100); for CUG vs AUG (%) / GUG vs AUG (%): compound at 20uM (summary head), single-experiment calculation; for GUG vs AUG (%): GUG start codon reporter relative to AUG reporter (AUG = 100)
Description: We next considered the importance of eIF1A in controlling start codon fidelity in yeast and mammalian cells (Martin-Marcos et al, [2011]; Martin-Marcos et al, [2017]; Sehrawat et al, [2019]; She et al, [2023]) and tested how inhibition of eIF1A by 1Ais affects the initiation from near-cognate AUG. The effect of 1Ais was analyzed using firefly luciferase reporters bearing either AUG (control), CUG, or GUG as the exclusive translation initiation sites. Co-transfected GFP reporter served as an internal control for transfection efficiency.
For the near-cognate AUG Starting codon fidelity reporter assay, HEK293T cells were transfected with 100 ng of the previously described luciferase reporter constructs driven either by AUG, CUG, and GUG (Tang et al, [2017]) together with GFP expressing plasmid (20 ng) as normalizing control. Luciferase and GFP levels were determined as described above.
Appendix Figure S1: (A) HEK293T cells were transfected with Luciferase reporter genes with either CUG or AUG as their exclusive starting codon. 6 hours after transfection, cells were exposed to 1Ais, and the luminescence from all constructs was measured after overnight incubation. Bars represent the ratio between luminescence from the AUG starting codon and CUG after normalization with co-transfected GFP; Error bars represent SEM, * denotes p<0.05 (T-test comparing to DMSO control), n=≥4 independent biological replicates.

NSP1 = NSP1 (Severe acute respiratory syndrome coronavirus 2, UniProt P0DTD1)
[5] = raw data calculation of one experiment, GFP normalized, AUG set to 100, compound marked (20)

Structure (SMILES): O=C(Nc1ccc(S(=O)(=O)NC23CC4CC(CC(C4)C2)C3)cc1)c1ccc(Cl)cc1 [1A-3638]
- Weight of tumor, average ([1]; group average): 0.2614
- Weight of tumor ([1]; individual animals): 0.6521 and 0.1855 and 0.085 and 0.0594 and 0.2257 and 0.0264 and 0.562 and 0.006 and 0.5508
- Tumor weight p-value (t-test vs DMSO) ([1]; t.test vs DMSO): 0.005991

Structure (SMILES): O=C(Nc1nc(-c2c[nH]c3ccccc23)cs1)c1cc(=O)[nH]c2ccccc12 [1Ai-0403]
- US/DS ratio, average [2]: 1.283
- LONG (summary - All), normalized to DMSO ([3]; Long reporter, 5 µM): 0.54 and 1.00 and 0.95
- SHORT (summary - All), normalized to DMSO ([3]; Short reporter, 5 µM): 1.05 and 0.93 and 1.12
- Long: Normalized to average DMSO ([3]; data section, Long reporter, GFP-corrected, 5 µM, per experiment): 0.5423 and 1 and 0.9496
- Short: Normalized to average DMSO ([3]; data section, Short reporter, GFP-corrected, 5 µM, per experiment, includes values excluded as outliers): 1.05 and 0.9341 and 1.121
- average ( long vs short ratio) ([3]; 5 µM): 0.803
- IC50 (eIF1A-RPS10 interaction): 17 µM
- GUG vs AUG data (%) ([4]; compound at 5uM): 1.56% and 2.09% and 1.50% and 2.83%
- GUG vs AUG (%) Average ([4]; compound at 5uM): 1.99%

Structure (SMILES): c1csc(-c2nc(NCc3nnc4ccccn34)c3ccccc3n2)c1 [1Ai-2136]
- US/DS ratio, average [2]: 0.8866
- LONG (summary - All), normalized to DMSO ([3]; Long reporter, 20 µM): 0.43 and 0.72 and 0.55 and 0.54
- SHORT (summary - All), normalized to DMSO ([3]; Short reporter, 20 µM): 0.63 and 0.25 and 0.98 and 0.99 and 0.71 and 0.58
- Long 5'UTR reporter luciferase activity, normalized to DMSO (=1), single replicates [3]: 0.43 and 1.0233 and 1.053 and 0.724 and 0.552 and 0.5382
- average ( long vs short ratio) ([3]; 20 µM): 0.813
- IC50 (eIF1A-RPS10 interaction): 29 µM
- GUG vs AUG data (%) ([4]; compound at 20uM): 1.58% and 2.63% and 2.62% and 2.27%
- GUG vs AUG (%) Average ([4]; compound at 20uM): 2.27%

Structure (SMILES): COc1ccc(CN(Cc2nn3c(=O)cc(C)nc3s2)C(C)Cc2cccs2)cc1 (stereo not shown) [1Ai-5751]
- US/DS ratio, average [2]: 1.056
- LONG (summary - All), normalized to DMSO ([3]; Long reporter, 20 µM): 0.26 and 0.28 and 0.72 and 0.89 and 0.77 and 0.31
- SHORT (summary - All), normalized to DMSO ([3]; Short reporter, 20 µM): 0.74 and 0.11 and 0.73 and 0.61 and 0.46 and 0.21
- Long 5'UTR reporter luciferase activity, normalized to DMSO (=1), single replicates [3]: 0.2584 and 0.2757 and 0.7216 and 0.8893 and 0.7688 and 0.3143
- average ( long vs short ratio) ([3]; 20 µM): 1.128
- IC50 (eIF1A-RPS10 interaction): 18 µM
- GFP reporter ratio nsp1/gfp, avg (NSP1): 0.4183
- GFP reporter ratio nsp1/gfp, rep 1 (NSP1): 0.4426
- GFP reporter ratio nsp1/gfp, rep 2 (NSP1): 0.3941
- gfp signal, mean of duplicate wells (NSP1): 2691 and 4145
- nsp1 signal, mean of duplicate wells (NSP1): 1060.5 and 1834.5
- ratio (nsp1/gfp) (NSP1): 0.394 and 0.443
- GUG vs AUG data (%) ([4]; compound at 20uM): 1.65% and 1.59% and 3.31% and 1.26%
- GUG vs AUG (%) Average ([4]; compound at 20uM): 1.95%

Structure (SMILES): O=S(=O)(Cc1cc(Cl)c2c(c1)OCCO2)Cc1nc(-c2ccccc2)no1 [1Ai-6476]
- US/DS ratio, average [2]: 0.719
- LONG (summary - All), normalized to DMSO ([3]; Long reporter, 20 µM): 0.42 and 1.63 and 1.39 and 0.53
- SHORT (summary - All), normalized to DMSO ([3]; Short reporter, 20 µM): 0.36 and 1.11 and 1.08 and 0.95
- average ( long vs short ratio) ([3]; 20 µM): 1.134
- IC50 (eIF1A-RPS10 interaction): 15 µM
- GUG vs AUG data (%) ([4]; compound at 20uM): 1.75% and 1.69% and 1.77% and 1.59%
- GUG vs AUG (%) Average ([4]; compound at 20uM): 1.70%
- calculation: CUG (AUG = 100) [4, 5]: 6.068
- calculation: GUG (AUG = 100) [4, 5]: 1.669

Structure (SMILES): O=C1c2ccccc2NC(c2cc(Cl)c3c(c2)OCO3)N1C1CC1 (stereo not shown) [1Ai-6586]
- US/DS ratio, average [2]: 0.8389
- LONG (summary - All), normalized to DMSO ([3]; Long reporter, 20 µM): 0.0557 and 0.45 and 1.19 and 0.73
- SHORT (summary - All), normalized to DMSO ([3]; Short reporter, 20 µM): 0.06 and 0.81 and 0.69 and 1.23
- average ( long vs short ratio) ([3]; 20 µM): 0.871
- IC50 (eIF1A-RPS10 interaction): 24 µM
- CUG vs AUG (%) [4]: 6.859%
- GUG vs AUG (%) [4]: 1.078%
- GUG vs AUG data (%) ([4]; compound at 20uM): 1.26% and 0.96% and 1.21% and 1.81%
- GUG vs AUG (%) Average ([4]; compound at 20uM): 1.31%

Structure (SMILES): COC(=O)C1=C(C)NC2=C(C(=O)CC(c3ccc(F)cc3)C2)C1c1ccc(N(C)C)cc1Cl (stereo not shown) [1Ai-9162]
- US/DS ratio, average [2]: 0.9825
- LONG (summary - All), normalized to DMSO ([3]; Long reporter, 20 µM): 0.54 and 0.53 and 0.27 and 0.64
- SHORT (summary - All), normalized to DMSO ([3]; Short reporter, 20 µM): 0.54 and 0.47 and 0.46
- average ( long vs short ratio) ([3]; 20 µM): 1.009
- IC50 (eIF1A-RPS10 interaction): 16 µM
- CUG vs AUG (%) [4]: 9.614%
- GUG vs AUG (%) [4]: 2.083%
- GUG vs AUG data (%) ([4]; compound at 20uM): 2.05% and 2.20% and 2.48% and 2.61%
- GUG vs AUG (%) Average ([4]; compound at 20uM): 2.33%
